pKi: −log10 of the molar value. Read-outs that look alike come from different tables or passages of the source.

Experiment [1] deals with T1, PKC beta-I (Homo sapiens, UniProt P05771).
T1 construct: purchased Invitrogen
Description: PKC binding assay, competition with 3H-PDBu (glass-fiber filtration). To be noted: for Ki: recombinant human PKC isoform, competition with 3H-PDBu, parentheses = 95% confidence interval, read-out: PKC Ki (nM) beta-1. How it is done:
(§1) This procedure entails a glass-fiber filtration method to determine bound radioligand. PKC-beta-I and PKC-delta were selected for preliminary evaluation. The former is a member of the conventional PKC subfamily while the latter is a member of the novel PKC sub-family (A. C. Newton. Protein Kinase C: Structure, Function, and Regulation. J. Biol. Chem. 270, 28495-28498 (1995)).
(§2) To a 50 mL polypropylene tube was added Tris-HCl (pH 7.4, 1 M, 1 mL), KCl (1 M, 2 mL), CaCl2 (0.1 M, 30 μL), and bovine serum albumin (40 mg, Sigma-Aldrich). This mixture was diluted to 20 mL with deionized H2O and mixed gently. The buffer was stored on ice until use.
(§3) For every two assays, 3.5 mg phosphatidylserine (Avanti Polar Lipids, porcine, 25 mg/mL CHCl3 solution) was concentrated by removing chloroform under a stream of nitrogen followed by reduced pressure. The solid P S was suspended as vesicles in freshly prepared PKC binding assay buffer (3.5 mL) by sonicating six times for 30 sec, with a 30 sec rest between sonications (Branson Sonifier 250, power=2, 50% duty cycle). The resulting milky cloudy mixture (1 mg/mL) was stored on ice until use.
(§4) Assay PKC was prepared by dissolving a 4 μg aliquot of the indicated recombinant human PKC isoform (Invitrogen) into 11.6 mL of PKC binding assay buffer (this amount is sufficient for two assays). The diluted PKC was stored on ice for immediate use.
(§5) The resulting 500 nM stock solution was further diluted with DMSO to 30 nM.
(§6) Compound dilutions were prepared by serially diluting from a chosen “high” concentration by factors of 3 or 4. For each analog compound, seven concentrations were used to define the inhibition curve (i.e. for exocyclic alkene 34, the analog concentrations used were 3000 nM, 750 nM, 188 nM, 46.9 nM, 11.7 nM, 2.93 nM, and 0.73 nM).
(§7) The resulting solution was vortexed to mix and stored on ice.
(§8) • Glass-fiber filters (Whatman GF/B) were prepared by soaking them in a solution of aqueous polyethyleneimine (10% by vol, 18 mL) in deionized water (600 mL) for >1 h. • 500 mL “rinsing buffer” of 20 mM Tris, pH 7.4 was cooled on ice for the duration of the incubation period and for the remainder of the assay.
(§9) Triplicate data points were obtained for each analog concentration. […]
(§10) The resulting filters had circular perforations for each data point, which were removed with forceps and placed in a scintillation vial. Scintillation vials were filled with Bio-Safe II scintillation fluid (5 mL) and measured for radioactivity using a Beckman LS 6000SC scintillation counter. […] The data were plotted—cpm vs. log(concentration)—using Prism® by GraphPad Software and an IC50 was determined using that program's built-in one-site competition least squares regression function.

The target of experiment [2] is T2, PKC delta (Homo sapiens, UniProt Q05655).
T2 construct: purchased Invitrogen
T2 sequence (Q05655 whole entry): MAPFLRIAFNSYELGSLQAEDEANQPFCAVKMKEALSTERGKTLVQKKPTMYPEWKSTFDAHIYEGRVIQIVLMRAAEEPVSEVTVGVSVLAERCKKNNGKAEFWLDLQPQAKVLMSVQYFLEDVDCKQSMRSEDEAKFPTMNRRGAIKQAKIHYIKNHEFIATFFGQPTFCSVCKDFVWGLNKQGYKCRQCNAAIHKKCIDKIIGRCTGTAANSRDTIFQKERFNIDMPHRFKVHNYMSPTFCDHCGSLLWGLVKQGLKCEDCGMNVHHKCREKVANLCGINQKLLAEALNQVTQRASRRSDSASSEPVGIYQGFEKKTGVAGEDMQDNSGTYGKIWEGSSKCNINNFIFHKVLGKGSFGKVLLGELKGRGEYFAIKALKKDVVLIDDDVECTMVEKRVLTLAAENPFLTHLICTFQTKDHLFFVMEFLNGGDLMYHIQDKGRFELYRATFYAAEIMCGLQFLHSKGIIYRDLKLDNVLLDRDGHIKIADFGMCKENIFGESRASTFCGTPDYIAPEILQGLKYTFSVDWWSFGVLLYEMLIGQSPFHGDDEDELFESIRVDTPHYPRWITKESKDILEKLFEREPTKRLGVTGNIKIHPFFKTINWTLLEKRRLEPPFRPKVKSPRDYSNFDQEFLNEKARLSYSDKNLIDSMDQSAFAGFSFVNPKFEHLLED
The description is as above. To be noted: recombinant human PKC isoform, parentheses = 95% confidence interval. How it is done: as §1, §2, §3, §4, §5, §6, §7, §8, §9, §10

T1 sequence (P05771 whole entry): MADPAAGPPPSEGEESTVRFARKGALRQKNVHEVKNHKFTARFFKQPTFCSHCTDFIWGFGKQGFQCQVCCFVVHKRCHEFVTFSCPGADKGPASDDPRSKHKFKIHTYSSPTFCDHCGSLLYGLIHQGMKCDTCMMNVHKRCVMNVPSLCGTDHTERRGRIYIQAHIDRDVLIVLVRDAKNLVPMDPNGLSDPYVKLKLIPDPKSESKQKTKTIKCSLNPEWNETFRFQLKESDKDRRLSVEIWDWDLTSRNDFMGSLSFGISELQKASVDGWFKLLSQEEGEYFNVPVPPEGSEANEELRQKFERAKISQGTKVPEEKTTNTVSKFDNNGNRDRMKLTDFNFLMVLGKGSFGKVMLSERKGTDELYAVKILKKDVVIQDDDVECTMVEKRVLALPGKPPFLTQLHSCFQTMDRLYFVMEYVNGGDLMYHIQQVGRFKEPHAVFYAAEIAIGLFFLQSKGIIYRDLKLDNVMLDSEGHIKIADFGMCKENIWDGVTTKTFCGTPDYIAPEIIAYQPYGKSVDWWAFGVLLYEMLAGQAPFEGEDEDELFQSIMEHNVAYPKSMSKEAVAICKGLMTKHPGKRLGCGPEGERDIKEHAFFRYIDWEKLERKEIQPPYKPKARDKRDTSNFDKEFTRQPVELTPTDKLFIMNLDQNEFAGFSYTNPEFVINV

In the case of `CCC/C=C/C=C/C(=O)O[C@H]1/C(=C/C(=O)OC)C[C@H]2CC([C@@H](C)O)OC(=O)C[C@@H](O)C[C@@H]3C[C@H](OC(C)=O)C(C)(C)[C@](O)(C[C@@H]4C/C(=C\C(=O)OC)C[C@H](/C=C/C(C)(C)[C@]1(O)O2)O4)O3` (stereo partly shown) [(E)-enoate 35], the pKi – broadly, the negative decadic logarithm of the Ki, by convention in mol/L – in experiment [1] is 7.92.
Turning to `CCC/C=C/C=C/C(=O)O[C@H]1/C(=C/C(=O)OC)C[C@H]2C[C@H]([C@@H](C)O)OC(=O)C[C@H](O)C[C@@H]3C[C@H](OC(C)=O)C(C)(C)[C@](O)(C[C@@H]4C/C(=C/C(=O)OC)C[C@H](/C=C/C(C)(C)[C@]1(O)O2)O4)O3` [bryostatin 1, reference compound], the Ki – broadly, the equilibrium dissociation constant of an inhibitor or competing ligand from its target – in experiment [1] stood at 1.6 nM.
As to `C=C1C[C@H]2C[C@]3(O)O[C@H](C[C@H](O)CC(=O)OC([C@@H](C)O)C[C@@H]4C/C(=C\C(=O)OC)[C@H](OC(=O)C#CCCCCC)[C@@](O)(O4)C(C)(C)/C=C/[C@@H](C1)O2)C[C@H](OC(C)=O)C3(C)C` (stereo partly shown) [alkene 34], the inhibitory constant (Ki) in experiment [1] worked out at 3.9 nM; in experiment [2] it was 0.76 nM.

These data come from patent US12435071B2, “Bryostatin compounds and methods of preparing the same” (priority 2016, dated 2025).
